Test results: US11530198B2, “Compositions and methods for treating infections” (priority 2016, dated 2022)

Molecular target: T. gondii DHFR (tgDHFR) (Toxoplasma gondii, UniProt Q07422)
Settings: not given

| SMILES | Average DHFR selectivity (h/tg) |
| --- | --- |
| CCc1nc(N)nc(N)c1N1CCN(c2cccc(OC)c2)CC1 [Compound 33, 6-ethyl-5-(4-(3-methoxyphenyl)piperazin-1-yl)pyrimidine-2,4-diamine] | 120.23 |

Same assay, conditions: hDHFR IC50/tgDHFR IC50

| SMILES | Average DHFR selectivity (h/tg) |
| --- | --- |
| Nc1ncc(N2CCN(c3ccc(Cl)c(Cl)c3)CC2)c(N)n1 [Compound 1, 5-(4-(3,4-dichlorophenyl)piperazin-1-yl)pyrimidine-2,4-diamine] | 5.5 |
| Nc1ncc(N2CCN(c3cccc(Br)c3)CC2)c(N)n1 [Compound 11, 5-(4-(3-bromophenyl)piperazin-1-yl)pyrimidine-2,4-diamine] | 37.15 |
| Nc1ncc(N2CCC(c3ccccc3)CC2)c(N)n1 [Compound 15, 5-(4-phenylpiperidin-1-yl)pyrimidine-2,4-diamine] | 25.26 |
| Nc1ncc(N2CCN(c3cccc(N4CCOCC4)c3)CC2)c(N)n1 [Compound 25, 5-(4-(3-morpholinophenyl)piperazin-1-yl)pyrimidine-2,4-diamine] | 105.15 |
| CC1CN(c2cnc(N)nc2N)CCN1c1cccc(-c2ccccc2)c1 (stereo not shown) [Compound 26, 5-(4-([1,1′-biphenyl]-3-yl)-3-methylpiperazin-1-yl)pyrimidine-2,4-diamine] | 14.96 |
| CC1CN(c2cccc(-c3ccccc3)c2)CCN1c1cnc(N)nc1N (stereo not shown) [Compound 27, 5-(4-([1,1′-biphenyl]-3-yl)-2-methylpiperazin-1-yl)pyrimidine-2,4-diamine] | 218.78 |
| CCc1nc(N)nc(N)c1N1CCN(c2ccccc2)CC1 [Compound 28, 6-ethyl-5-(4-phenylpiperazin-1-yl)pyrimidine-2,4-diamine] | 235.78 |
| CCc1nc(N)nc(N)c1N1CCN(c2cccc(C)c2)CC1 [Compound 31, 6-ethyl-5-(4-(m-tolyl)piperazin-1-yl)pyrimidine-2,4-diamine] | 119.54 |
| CCc1nc(N)nc(N)c1N1CCN(c2ccccn2)CC1 [Compound 34, 6-ethyl-5-(4-(pyridin-2-yl)piperazin-1-yl)pyrimidine-2,4-diamine] | 158.49 |
| CCc1nc(N)nc(N)c1N1CCN(c2ccncc2)CC1 [Compound 36, 6-ethyl-5-(4-(pyridin-4-yl)piperazin-1-yl)pyrimidine-2,4-diamine] | 110.92 |
| CCc1nc(N)nc(N)c1N1CCN(c2ccc(C)cc2)CC1 [Compound 39, 6-ethyl-5-(4-(p-tolyl)piperazin-1-yl)pyrimidine-2,4-diamine] | 144.58 |
| CCc1nc(N)nc(N)c1N1CCN(c2ccc(F)cn2)CC1 [Compound 44, 6-ethyl-5-(4-(5-fluoropyridin-2-yl)piperazin-1-yl)pyrimidine-2,4-diamine] | 71.23 |
| CCc1nc(N)nc(N)c1N1CCN(c2ccc(C)cn2)CC1 [Compound 45, 6-ethyl-5-(4-(5-methylpyridin-2-yl)piperazin-1-yl)pyrimidine-2,4-diamine] | 136.15 |
| Cc1nc(N)nc(N)c1N1CCN(c2ccccc2)CC1 [Compound 47, 6-methyl-5-(4-phenylpiperazin-1-yl)pyrimidine-2,4-diamine] | 84.63 |
| CCCc1nc(N)nc(N)c1N1CCC(c2ccccc2)CC1 [Compound 51, 5-(4-phenylpiperidin-1-yl)-6-propylpyrimidine-2,4-diamine] | 241.03 |
| CCCc1nc(N)nc(N)c1N1CCN(c2ccc(F)cc2)CC1 [Compound 52, 5-(4-(4-fluorophenyl)piperazin-1-yl)-6-propylpyrimidine-2,4-diamine] | 303.92 |
| CCCc1nc(N)nc(N)c1N1CCN(c2ccccn2)CC1 [Compound 56, 6-propyl-5-(4-(pyridin-2-yl)piperazin-1-yl)pyrimidine-2,4-diamine] | 269.78 |
| CCCc1nc(N)nc(N)c1N1CCN(c2ncc(C)cn2)CC1 [Compound 59, 5-(4-(5-methylpyrimidin-2-yl)piperazin-1-yl)-6-propylpyrimidine-2,4-diamine] | 118.81 |
